According to US11039613B2, “Germination promoters” (SYNGENTA PARTICIPATIONS AG, priority 2017, dated 2021):
Read-outs that look alike come from different tables or passages of the source. Values belong to the molecule of their own block, whether it stands above or below them.

Columns and labels:
NK Falkone corn seeds [1] = assay: Corn seed germination, salt (NaCl, 100 mM) stress and optimal temperature (23° C.); assay type: in vivo; conditions: salt (NaCl) stress
Description: (§1) NK Falkone corn seeds (harvested in 2015) were sorted by size using a sieve to keep away round seeds.
The corn seeds were placed in 24 well plates (each plate was considered as one experimental unit or replicate). […] 8 replicates (i.e. 8 plates) were used for each treatment characterization. Plates were sealed using seal foil (Polyolefin Art. Nr. 900320) from HJ-BIOANALYTIK. All plates were placed in two carrousels in a climatic chamber at 15° C. The experiment was laid out in a completely randomized design in climatic chamber with 60% Relative Humidity.
(§2) Germination was followed over time by taking photographs at different time points. Image analysis was performed automatically with a macro which was developed using the Image J software. A dynamic analysis of germination was carried out by fitting a logistic curve. Three parameters were calculated from the logistic curve: the T50; the slope and the plateau. All three parameters have a high agronomical relevance and are key requirements to ensure a good early crop-establishment. The T50 and slope for a selection of compounds are outlined in Table 2 below. All the values are expressed as percentages compared to an untreated control. All the three parameters are calculated considering 8 replicates and the kinetic parameters are separately determined for each germination curve. Data in bold indicate germination enhancing statistically significant differences between treated seeds and untreated control (p<0.05). T50 corresponds to the time needed for half of the seed population to germinate. Higher negative %-values indicate faster germination. Slope indicates how synchronous the germination of the seed population is. Positive values indicate steeper curve. The steeper the curve, the better and more uniform the germination is.
The experimental protocol was the same as in Example B1, except that the plates were placed in a climatic chamber at 23° C.

NK Falkone corn seeds [2] = assay: Corn seed germination, osmotic stress (PEG 2%) and cold stress (15° C.); assay type: in vivo; conditions: osmotic (PEG 2%) and cold 15° C.
Description: as §1
(§3) The corn seeds were placed in 24 well plates (each plate was considered as one experimental unit or replicate). Germination was initiated by the addition of 200 μl of distilled water containing 0.5% DMSO per well. 8 replicates (i.e. 8 plates) were used for each treatment characterization. Plates were sealed using seal foil (Polyolefin Art. Nr. 900320) from HJ-BIOANALYTIK. All plates were placed in two carrousels in a climatic chamber at 15° C. The experiment was laid out in a completely randomized design in climatic chamber with 60% Relative Humidity.
as §2
(§4) The effect of compounds of Formula (III-1 and P1) on the germination of NK Falkone corn seeds under salt and cold stress was evaluated as follows.
The experimental protocol was the same as in Example B1, except that germination was initiated by the addition of 200 μl of distilled water containing 0.5% DMSO and 2% PEG per well.

Hydrolytic stability = assay type: physicochemical; conditions: for half-life: aqueous buffer/acetonitrile solution, pH 9, pH 9, buffer/acetonitrile; for half-life / % remaining, less polar isomer / % remaining, more polar isomer: 40° C.
Description: Prior to conducting the individual hydrolytic stability assays, stock solutions containing 1000 ppm of each test compound (i.e. compounds III-1 and P1) were prepared in acetonitrile.
The reagents used in the assays were prepared as follows. A 20 mM buffer solution was prepared from a stock solution of 20 mM mixed acetate, borate and phosphate buffer and the pH adjusted to 7 or 9 as required.
Test solutions were prepared in LC vials for each test compound in the following manner: Hydrolytic Stability: Buffer (750 μL)+acetonitrile (250 μL)+compound stock solution (2 to 40 μL).
The buffers were initially dispensed into separate glass LC vials, placed into an autosampler complete with thermostat set at 40° C. and allowed to equilibrate for 30 minutes prior to starting the individual assays.
Analysis was carried out on Waters LCMS systems under reverse phase conditions using 10 cm C18 columns and acetonitrile (HPLC grade) acidified water (0.2% formic acid) mobile phase at a flow rate of 1 ml min-1. Peak detection was at the optimum wavelength (230-250 nm) and peak areas were used for quantification
Reactions were initiated by addition of the compound solution and monitored through a series of repeat injections made directly from the vial into the HPLC system at regular time intervals. Initial and subsequent measurements of peak area attributable to the test compound were used to fit exponential half-lives and calculate first-order rate constants.
Consequently, the percentage of compound remaining was recorded at the last assessment time.

NK Falkone corn seeds [3] = assay: Corn seed germination, cold stress (15° C.); assay type: in vivo; conditions: for T50 (% vs control): control T50 = 110 hours
Description: The effect of compounds of Formula (II-1 and III-1) on the germination of NK Falkone corn seeds under salt and cold stress was evaluated as follows.
as §1, §3, §2

NK Falkone corn seeds [4] = assay: Corn seed germination, salt (NaCl, 100 mM) and cold stresses (15° C.); assay type: in vivo; conditions: cold 15° C. and salt 100 mM NaCl
Description: as §1, §3, §2, §4
The experimental protocol was the same as in Example B1, except that germination was initiated by the addition of 200 μl of distilled water containing 0.5% DMSO and 100 mM NaCl per well.

[5] = less polar isomer, read-out: Hydrolytic stability pH9 (t½), less polar isomer (converted)
[6] = more polar isomer, read-out: Hydrolytic stability pH9 (t½), more polar isomer

half-life (Hydrolytic stability; [5]): > 59 h
half-life (Hydrolytic stability; [6]): > 59 h
% remaining, less polar isomer (Hydrolytic stability; pH 9, at 17.6 hours, less polar isomer): 97.5% remaining at 17.6 hours
% remaining, more polar isomer (Hydrolytic stability; pH 9, at 17.6 hours, more polar isomer): 94.9% remaining at 17.6 hours
Hydrolytic stability compared with less polar isomer of P1 (Hydrolytic stability; pH 9, less polar isomer, vs P1): more stable
Compound: CC1=CC(O/C=C2/C(=O)NC3Cc4ccccc4C23)N(c2cc(C(F)(F)F)cc(C(F)(F)F)c2)C1=O (centres unmarked) [III-1, (1E)-[[1-[3,5-bis(trifluoromethyl)phenyl]-4-methyl-1-oxo-2H-pyrrol-2-yl]oxymethylene]-3,3a,4,8b-tetrahydroindeno[2,1-b]pyrrol-2-one]
Slope (% vs control) (NK Falkone corn seeds [1]; Rate 0.4 μM): 1.2 % vs control
T50 (% vs control) (NK Falkone corn seeds [1]; Rate 0.4 μM): −0.5 % vs control
Slope (% vs control) (NK Falkone corn seeds [1]; Rate 2 μM): −0.4 % vs control
T50 (% vs control) (NK Falkone corn seeds [1]; Rate 2 μM): −0.2 % vs control
Slope (% vs control) (NK Falkone corn seeds [1]; Rate 10 μM): 85.8 % vs control
T50 (% vs control) (NK Falkone corn seeds [1]; Rate 10 μM): −11 % vs control
Slope (% vs control) (NK Falkone corn seeds [1]; Rate 50 μM): 132.5 % vs control
T50 (% vs control) (NK Falkone corn seeds [1]; Rate 50 μM): −15.9 % vs control
Slope compared with closest prior art compound P1 (NK Falkone corn seeds [1]; at equivalent rates, vs P1): higher slope
T50 compared with closest prior art compound P1 (NK Falkone corn seeds [1]; at equivalent rates, vs P1): lower T50
Slope (% vs control) (NK Falkone corn seeds [2]; Rate 0.4 μM): 1 % vs control
T50 (% vs control) (NK Falkone corn seeds [2]; Rate 0.4 μM): 0.8 % vs control
Slope (% vs control) (NK Falkone corn seeds [2]; Rate 2 μM): 3.9 % vs control
T50 (% vs control) (NK Falkone corn seeds [2]; Rate 2 μM): −0.2 % vs control
Slope (% vs control) (NK Falkone corn seeds [2]; Rate 10 μM): 7.6 % vs control
T50 (% vs control) (NK Falkone corn seeds [2]; Rate 10 μM): −3.6 % vs control
Slope (% vs control) (NK Falkone corn seeds [2]; Rate 50 μM): 23.8 % vs control
T50 (% vs control) (NK Falkone corn seeds [2]; Rate 50 μM): −4.0 % vs control
Slope compared with closest prior art compound P1 (NK Falkone corn seeds [2]; at equivalent rates, vs P1): higher slope
T50 compared with closest prior art compound P1 (NK Falkone corn seeds [2]; at equivalent rates, vs P1): lower T50
Slope (% vs control) (NK Falkone corn seeds [3]; Rate 0.4 μM): 7.3 % vs control
T50 (% vs control) (NK Falkone corn seeds [3]; Rate 0.4 μM): −0.7 % vs control
Slope (% vs control) (NK Falkone corn seeds [3]; Rate 2 μM): 14.3 % vs control
T50 (% vs control) (NK Falkone corn seeds [3]; Rate 2 μM): 1.3 % vs control
Slope (% vs control) (NK Falkone corn seeds [3]; Rate 10 μM): 82.6 % vs control
T50 (% vs control) (NK Falkone corn seeds [3]; Rate 10 μM): −8.5 % vs control
Slope (% vs control) (NK Falkone corn seeds [3]; Rate 50 μM): 175.6 % vs control
T50 (% vs control) (NK Falkone corn seeds [3]; Rate 50 μM): −10.1 % vs control
Slope compared with closest prior art compound P1 (NK Falkone corn seeds [3]; at equivalent rates, vs P1): higher slope
Slope (% vs control) (NK Falkone corn seeds [4]; Rate 0.4 μM): −4 % vs control
T50 (% vs control) (NK Falkone corn seeds [4]; Rate 0.4 μM): −0.5 % vs control
Slope (% vs control) (NK Falkone corn seeds [4]; Rate 2 μM): 7.4 % vs control
T50 (% vs control) (NK Falkone corn seeds [4]; Rate 2 μM): −1.2 % vs control
Slope (% vs control) (NK Falkone corn seeds [4]; Rate 10 μM): 54.1 % vs control
T50 (% vs control) (NK Falkone corn seeds [4]; Rate 10 μM): −9.3 % vs control
Slope (% vs control) (NK Falkone corn seeds [4]; Rate 50 μM): 114.7 % vs control
T50 (% vs control) (NK Falkone corn seeds [4]; Rate 50 μM): −6.1 % vs control

Compound: CC1=C[C@H](O/C=C2/C(=O)O[C@@H]3Cc4ccccc4[C@H]23)N(c2cc(C(F)(F)F)cc(C(F)(F)F)c2)C1=O [II-1a]
Slope (% vs control) (NK Falkone corn seeds [3]; Rate 10 μM): 18.70 % vs control
T50 (% vs control) (NK Falkone corn seeds [3]; Rate 10 μM): −2.70 % vs control
Slope (% vs control) (NK Falkone corn seeds [3]; Rate 50 μM): 68.50 % vs control
T50 (% vs control) (NK Falkone corn seeds [3]; Rate 50 μM): −5.30 % vs control
Slope (% vs control) (NK Falkone corn seeds [3]; Rate 250 μM): 37.00 % vs control
T50 (% vs control) (NK Falkone corn seeds [3]; Rate 250 μM): −3.20 % vs control
Slope compared with closest prior art compound P2 (NK Falkone corn seeds [3]; at equivalent rates, vs P2): higher slope
T50 compared with closest prior art compound P2 (NK Falkone corn seeds [3]; at equivalent rates, vs P2): lower T50

Compound: CC1=CC(O/C=C2/C(=O)NC3c4ccccc4CC23)N(c2cc(C(F)(F)F)cc(C(F)(F)F)c2)C1=O (centres unmarked) [Compound P1, reference compound]
Slope (% vs control) (NK Falkone corn seeds [1]; Rate 0.4 μM): 4.1 % vs control
T50 (% vs control) (NK Falkone corn seeds [1]; Rate 0.4 μM): −0.4 % vs control
Slope (% vs control) (NK Falkone corn seeds [1]; Rate 2 μM): 2.8 % vs control
T50 (% vs control) (NK Falkone corn seeds [1]; Rate 2 μM): 3.3 % vs control
Slope (% vs control) (NK Falkone corn seeds [1]; Rate 10 μM): 70.8 % vs control
T50 (% vs control) (NK Falkone corn seeds [1]; Rate 10 μM): −10.2 % vs control
Slope (% vs control) (NK Falkone corn seeds [1]; Rate 50 μM): 111.4 % vs control
T50 (% vs control) (NK Falkone corn seeds [1]; Rate 50 μM): −15.2 % vs control
Slope (% vs control) (NK Falkone corn seeds [2]; Rate 0.4 μM): 2.7 % vs control
T50 (% vs control) (NK Falkone corn seeds [2]; Rate 0.4 μM): −0.8 % vs control
Slope (% vs control) (NK Falkone corn seeds [2]; Rate 2 μM): 3.2 % vs control
T50 (% vs control) (NK Falkone corn seeds [2]; Rate 2 μM): −0.8 % vs control
Slope (% vs control) (NK Falkone corn seeds [2]; Rate 10 μM): 20.9 % vs control
T50 (% vs control) (NK Falkone corn seeds [2]; Rate 10 μM): −2.8 % vs control
Slope (% vs control) (NK Falkone corn seeds [2]; Rate 50 μM): 1.3 % vs control
T50 (% vs control) (NK Falkone corn seeds [2]; Rate 50 μM): −4.3 % vs control
half-life (Hydrolytic stability; [5]): 59 h
half-life (Hydrolytic stability; [6]): > 59 h
% remaining, less polar isomer (Hydrolytic stability; pH 9, at 17.3 hours, less polar isomer): 85.5% remaining at 17.3 hours
% remaining, more polar isomer (Hydrolytic stability; pH 9, at 17.3 hours, more polar isomer): 97.9% remaining at 17.3 hours
Slope (% vs control) (NK Falkone corn seeds [3]; Rate 0.4 μM): 18.4 % vs control
T50 (% vs control) (NK Falkone corn seeds [3]; Rate 0.4 μM): −2.2 % vs control
Slope (% vs control) (NK Falkone corn seeds [3]; Rate 2 μM): 7.36 % vs control
T50 (% vs control) (NK Falkone corn seeds [3]; Rate 2 μM): −1.4 % vs control
Slope (% vs control) (NK Falkone corn seeds [3]; Rate 10 μM): 63.91 % vs control
T50 (% vs control) (NK Falkone corn seeds [3]; Rate 10 μM): −8.95 % vs control
Slope (% vs control) (NK Falkone corn seeds [3]; Rate 50 μM): 144.52 % vs control
T50 (% vs control) (NK Falkone corn seeds [3]; Rate 50 μM): −11.7 % vs control
Slope (% vs control) (NK Falkone corn seeds [4]; Rate 0.4 μM): 14.2 % vs control
T50 (% vs control) (NK Falkone corn seeds [4]; Rate 0.4 μM): 0.5 % vs control
Slope (% vs control) (NK Falkone corn seeds [4]; Rate 2 μM): 11.7 % vs control
T50 (% vs control) (NK Falkone corn seeds [4]; Rate 2 μM): −0.3 % vs control
Slope (% vs control) (NK Falkone corn seeds [4]; Rate 10 μM): 83.9 % vs control
T50 (% vs control) (NK Falkone corn seeds [4]; Rate 10 μM): −10.7 % vs control
Slope (% vs control) (NK Falkone corn seeds [4]; Rate 50 μM): 61.2 % vs control
T50 (% vs control) (NK Falkone corn seeds [4]; Rate 50 μM): −5.1 % vs control
